# Experimental data reported in PubChem BioAssay AID2060354 (Molecular Pharmacology Branch, DTP, NCI, 2025).
# pIC50: −log10 of the molar value.
# System: 519858-162-T-J1-PDC spheroid growth inhibition
# Experiment: Anticancer human tumor 519858-162-T-J1-PDC patient-derived colon adenocarcinoma cell line growth inhibition [TAK]
# Details: spheroids with HUVEC and MSC; for pIC50: curve of first compound; for viability, T/C: stronger effect = lower value
# Text: Combinatorial screen of targeted agents with TAK-243 and ipatasertib in multi-cell type tumor spheroids
# A high-throughput screen of multi-cell type tumor spheroids was designed to identify active combinations of targeted small molecules and TAK-243 or ipatasertib. Complex spheroids include a stromal component modeled by human endothelial cells (HUVEC) and fibroblasts modeled by human mesenchymal stem cells (MSCs). The concentration ranges selected for each drug and investigational agent were based upon clinically achievable concentrations if the clinical Cmax of the agent was known.
# Compounds. The drugs and investigational agents: TAK-243 (785004), ipatasertib (767898), everolimus (733504), selumetinib (741078), bortezomib (756655), trametinib (758246), ixazomib (758254), vemurafenib (761431), dabrafenib (764134), sapanisertib (764658), alpelisib (765974), and copanlisib (816437), were obtained from the National Cancer Institute (NCI) Developmental Therapeutics Program Chemical Repository. The FDA-approved anticancer drug set is available from the NCI Developmental Therapeutics Program. […] The stock solutions were prepared in dimethyl sulfoxide (DMSO, Sigma-Aldrich, St. Louis, MO, cat. D2650) at 800-fold the tested concentration and stored at -70 degrees C prior to their use. All drugs and investigational agents were tested over a range starting from a high concentration at or near the clinical Cmax and decreasing in half-log increments. If the clinical Cmax for an agent had not been determined, the highest concentration tested was 10 microM.
# NCI60 Cell Culture. NCI60 cell lines were obtained from the NCI Developmental Therapeutics Program Tumor Repository. For each lot of cells, the Repository performed Applied Biosystems AmpFLSTR Identifiler testing with PCR amplification to confirm consistency with the published Identifier STR profile for each cell line. Cells were kept in continuous culture for no more than 20 passages. The optimal seeding densities for each of the cell lines at each time point assessed were determined prior to performing the concentration response studies. Briefly, the NCI60 human tumor lines were grown as monolayers in RPMI 1640 medium supplemented with 10% FBS and 2 mmol/L L-glutamine.
# An additional 2 lines were from the NCI60 cell line panel including melanomas, MALME-3M and SK-MEL-2. Pooled donor human umbilical vein endothelial cells (HUVEC, Lonza, cat. CC-2519) and human mesenchymal stem cells (hMSC, Lonza, cat. PT-2501) were purchased from Lonza (Walkersville, MD).
# PDMR cell lines were grown in complete medium (DC medium): Dulbecco's modified Eagle's medium (DMEM)/F12 supplemented with 5% fetal bovine serum (FBS), 2 mM L-glutamine, 100 U/mL penicillin and 100 µg/ml streptomycin, 0.4 µg/ml hydrocortisone, 10 ng/ml epidermal growth factor (EGF) recombinant human protein, 24 µg/mL adenine, and 0.1 mg/mL primocin. During culture from frozen stock vials, PDMR cells were cultured in the same medium containing 10 µM Y-27632 (see Table 3). The PDCs were cultured in complete DMEM/F12 media without 10 microM Y-27632 dihydrochloride for at least two passages prior to the screen. The pooled donor HUVEC and hMSC were cultured in endothelial cell growth medium 2 (PromoCell, Heidelberg, Germany, cat. C-22011) and mesenchymal stem cell growth medium 2 (PromoCell, cat. C-28009), respectively. For all experiments, HUVEC and hMSC were used at passages </=5.
# For the pre-screen, cell seeding densities were determined from a titration spanning the range from 5,000 to 313 cells per well. The mct-spheroids including 60% malignant cells, 25% HUVEC and 15% MSC dispensed as a mixture into U-bottom Ultra-Low Attachment 384-well plates (Corning, NY)
# High-throughput Drug Combination Screening.
# Prior to their inoculation into 384-well plates, malignant cells, HUVEC, and hMSC were removed from T flasks using TrypLE express (Thermo Fisher Scientific, cat. 12605036) and harvested by centrifugation for 5 min at 233 x g. […]
# 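Further: spheroids exposed to drugs for 7 days.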
structure (smiles),measurement,setting,value
COC1CC2CCC(C)C(O)(O2)C(=O)C(=O)N2CCCCC2C(=O)OC(C(C)CC2CCC(OCCO)C(OC)C2)CC(=O)C(C)C=C(C)C(O)C(OC)C(=O)C(C)CC(C)C=CC=CC=C1C (stereo not given) + CC(C)NCC(C(=O)N1CCN(c2ncnc3c2C(C)CC3O)CC1)c1ccc(Cl)cc1,pIC50,second compound 0.3 µM,< 7.00
same,pIC50,second compound 0.949 µM,< 7.00
same,pIC50,second compound 3 µM,< 7.00
same,pIC50,second compound 9.49 µM,< 7.00
same,pIC50,second compound 30 µM,< 7.00
same,"viability, T/C","second compound 0.3 µM, first compound 0.000316 µM",102%
same,"viability, T/C","second compound 0.3 µM, first compound 0.001 µM",91.5%
same,"viability, T/C","second compound 0.3 µM, first compound 0.00316 µM",89.6%
same,"viability, T/C","second compound 0.3 µM, first compound 0.01 µM",90%
same,"viability, T/C","second compound 0.3 µM, first compound 0.0316 µM",104%
same,"viability, T/C","second compound 0.3 µM, first compound 0.1 µM",84.6%
same,"viability, T/C","second compound 0.949 µM, first compound 0.000316 µM",83.6%
same,"viability, T/C","second compound 0.949 µM, first compound 0.001 µM",87.1%
same,"viability, T/C","second compound 0.949 µM, first compound 0.00316 µM",65.8%
same,"viability, T/C","second compound 0.949 µM, first compound 0.01 µM",85.7%
same,"viability, T/C","second compound 0.949 µM, first compound 0.0316 µM",85.2%
same,"viability, T/C","second compound 0.949 µM, first compound 0.1 µM",71.6%
same,"viability, T/C","second compound 3 µM, first compound 0.000316 µM",99.2%
same,"viability, T/C","second compound 3 µM, first compound 0.001 µM",68.7%
same,"viability, T/C","second compound 3 µM, first compound 0.00316 µM",85.3%
same,"viability, T/C","second compound 3 µM, first compound 0.01 µM",93.4%
same,"viability, T/C","second compound 3 µM, first compound 0.0316 µM",85.6%
same,"viability, T/C","second compound 3 µM, first compound 0.1 µM",94.1%
same,"viability, T/C","second compound 9.49 µM, first compound 0.000316 µM",98.9%
same,"viability, T/C","second compound 9.49 µM, first compound 0.001 µM",84.6%
same,"viability, T/C","second compound 9.49 µM, first compound 0.00316 µM",75.6%
same,"viability, T/C","second compound 9.49 µM, first compound 0.01 µM",98%
same,"viability, T/C","second compound 9.49 µM, first compound 0.0316 µM",85.8%
same,"viability, T/C","second compound 9.49 µM, first compound 0.1 µM",73.8%
same,"viability, T/C","second compound 30 µM, first compound 0.000316 µM",90.2%
same,"viability, T/C","second compound 30 µM, first compound 0.001 µM",96.8%
same,"viability, T/C","second compound 30 µM, first compound 0.00316 µM",82.3%
same,"viability, T/C","second compound 30 µM, first compound 0.01 µM",96.8%
same,"viability, T/C","second compound 30 µM, first compound 0.0316 µM",97.3%
same,"viability, T/C","second compound 30 µM, first compound 0.1 µM",72.6%
Cn1cnc2c(F)c(Nc3ccc(Br)cc3Cl)c(C(=O)NOCCO)cc21 + CC(C)NCC(C(=O)N1CCN(c2ncnc3c2C(C)CC3O)CC1)c1ccc(Cl)cc1,pIC50,second compound 0.3 µM,7.11
same,pIC50,second compound 0.949 µM,7.16
same,pIC50,second compound 3 µM,7.02
same,pIC50,second compound 9.49 µM,6.86
same,pIC50,second compound 30 µM,6.79
same,"viability, T/C","second compound 0.3 µM, first compound 0.00949 µM",80.3%
same,"viability, T/C","second compound 0.3 µM, first compound 0.03 µM",62.7%
same,"viability, T/C","second compound 0.3 µM, first compound 0.0949 µM",49%
same,"viability, T/C","second compound 0.3 µM, first compound 0.3 µM",30.5%
same,"viability, T/C","second compound 0.3 µM, first compound 0.949 µM",17%
same,"viability, T/C","second compound 0.3 µM, first compound 3 µM",14%
same,"viability, T/C","second compound 0.949 µM, first compound 0.00949 µM",88.5%
same,"viability, T/C","second compound 0.949 µM, first compound 0.03 µM",64%
same,"viability, T/C","second compound 0.949 µM, first compound 0.0949 µM",44.1%
same,"viability, T/C","second compound 0.949 µM, first compound 0.3 µM",32.8%
same,"viability, T/C","second compound 0.949 µM, first compound 0.949 µM",15.7%
same,"viability, T/C","second compound 0.949 µM, first compound 3 µM",16.8%
same,"viability, T/C","second compound 3 µM, first compound 0.00949 µM",73.8%
same,"viability, T/C","second compound 3 µM, first compound 0.03 µM",66.9%
same,"viability, T/C","second compound 3 µM, first compound 0.0949 µM",50.1%
same,"viability, T/C","second compound 3 µM, first compound 0.3 µM",30.7%
same,"viability, T/C","second compound 3 µM, first compound 0.949 µM",24.6%
same,"viability, T/C","second compound 3 µM, first compound 3 µM",15.5%
same,"viability, T/C","second compound 9.49 µM, first compound 0.00949 µM",84.2%
same,"viability, T/C","second compound 9.49 µM, first compound 0.03 µM",85.3%
same,"viability, T/C","second compound 9.49 µM, first compound 0.0949 µM",53.8%
same,"viability, T/C","second compound 9.49 µM, first compound 0.3 µM",36.2%
same,"viability, T/C","second compound 9.49 µM, first compound 0.949 µM",23.4%
same,"viability, T/C","second compound 9.49 µM, first compound 3 µM",17%
same,"viability, T/C","second compound 30 µM, first compound 0.00949 µM",101%
same,"viability, T/C","second compound 30 µM, first compound 0.03 µM",79%
same,"viability, T/C","second compound 30 µM, first compound 0.0949 µM",68.7%
same,"viability, T/C","second compound 30 µM, first compound 0.3 µM",32.2%
same,"viability, T/C","second compound 30 µM, first compound 0.949 µM",21%
same,"viability, T/C","second compound 30 µM, first compound 3 µM",21.4%
